Paper PMC3740200 (Dalton transactions (Cambridge, England : 2003), 2012)
Read-outs that look alike come from different tables or passages of the source.

Tests used:
WT DaCld = details: cited from earlier work
W156F DaCld = W156F DaCld (Dechloromonas aromatica, UniProt Q47CX0, W190F); assay: Equilibrium binding of heme ligands
DaCld(W227F) = DaCld(W227F) (Dechloromonas aromatica, UniProt Q47CX0, W261F); assay: Equilibrium binding of heme ligands
DaCld(W227F), sequence (Q47CX0 32-282 W261F): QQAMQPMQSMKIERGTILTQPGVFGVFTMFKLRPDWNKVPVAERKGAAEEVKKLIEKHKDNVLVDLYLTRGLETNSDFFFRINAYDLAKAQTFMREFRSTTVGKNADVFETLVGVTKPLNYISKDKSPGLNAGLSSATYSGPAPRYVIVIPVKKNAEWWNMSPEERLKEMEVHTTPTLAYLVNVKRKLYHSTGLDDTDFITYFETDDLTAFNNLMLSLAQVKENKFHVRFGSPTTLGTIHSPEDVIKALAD

W156F DaCld, sequence (Q47CX0 32-282 W190F): as the sequence (Q47CX0 32-282 W261F) above, with W159F, F230W counted along it

Row | Compound | Kd (WT DaCld; pH 7, 100 mM phosphate, 25 °C, ref [16]) [µM] | Kd (W156F DaCld) [µM] | Kd (DaCld(W227F)) [µM] | Kd (WT DaCld; pH 7) [µM] | Kd (W156F DaCld; pH 7) [µM] | Kd (DaCld(W227F); pH 7) [µM]
1 | c1c[nH]cn1 [Imidazole] | 9.6 ± 0.3 | 26.6 ± 3.5 | 17.5 ± 1.5 |  |  | 
2 | [N-]=[N+]=[N-] [N3^-, azide] |  |  |  | 8.3 ± 0.1 | 34.5 ± 3.1 | 7 ± 0.3
3 | F [F^-, fluoride] |  |  | 3800 ± 900 | 15000 ± 1000 |  | 
